Measurements reported in PubChem BioAssay AID485374 (Sanford-Burnham Center for Chemical Genomics, 2010).
“And” between values parts separate entries of the source, which are not always exact repeats. Identical values can stand only once. The source made the active and inactive calls. The rule behind the calls is not given here.

Experiment: inhibitors of enzymatic SUMO conjugation, SAR follow-up, biochemical, AlphaScreen (AID 485374)
Conditions: AlphaScreen biochemical SUMOylation assay

Row | SMILES | IC50
1 | CCCCn1c(N)c(S(=O)(=O)c2ccc(C)cc2)c2nc3ccccc3nc21 | > 100 µM (inactive)
2 | COc1ccc(CN2C(=O)C(NC(C)=O)c3ccccc32)cc1 (configuration not stated) | > 100 µM (inactive)
3 | COC(=O)C1=C(C(=O)OC)C2(C(Cc3ccc(F)cc3)Nc3ccccc3)C=CC1O2 (configuration not stated) | 0.527 µM
4 | C=CC[C@@H](Nc1ccccc1)C12C=CC(O1)C(C(=O)OC)=C2C(=O)OC (some centres not stated) | 1.8 µM
5 | CC(=O)NC1C(=O)N(CCN2CCOCC2)c2ccc(C)cc21 (configuration not stated) | > 100 µM (inactive)
6 | C=CC[C@H](Nc1ccc(Cl)cc1)C12C=CC(O1)C(C(=O)OC)=C2C(=O)OC (some centres not stated) | 4.18 µM
7 | N#Cc1c(NC(=O)c2ccccc2Cl)n(Cc2ccccc2)c2nc3ccccc3nc12 | 2.44 µM
8 | COCCNC(=O)c1c(NC(=O)c2ccccc2)n(Cc2ccccc2)c2nc3ccccc3nc12 | 51.3 µM
9 | COc1cc(/C=C2\C(=O)N(c3ccccc3)N=C2C)ccc1O | 21.1 µM and 25.5 µM
10 | C=CC[C@@H](N(Cc1ccccc1)/C(=C\C(=O)OC)C(=O)OC)C12C=CC(O1)C(C(=O)OC)=C2C(=O)OC (some centres not stated) | 21.3 µM
11 | C=CC[C@H](N(Cc1ccccc1)/C(=C\C(=O)OC)C(=O)OC)C12C=CC(O1)C(C(=O)OC)=C2C(=O)OC (some centres not stated) | 15.1 µM
12 | CCCCn1c(NC(=O)c2ccco2)c(C#N)c2nc3ccccc3nc21 | 3.45 µM
13 | C=CCC(Nc1ccccc1)C12C=CC(O1)C(C(=O)OC)=C2C(=O)OC (configuration not stated) | 1.36 µM
14 | COC(=O)C=C(NC(CO)(CO)CO)C(=O)OC | > 100 µM (inactive)
15 | COC(=O)C1=C(C(=O)OC)C2([C@H](C)Nc3ccc(Cl)cc3)C=CC1O2 (some centres not stated) | 11.5 µM
16 | COC(=O)C1=C(C(=O)O)C2C=CC1([C@@H](Cc1ccccc1)Nc1ccccc1)O2 (some centres not stated) | 2.87 µM
17 | Nc1c(C(=O)NCc2ccco2)c2nc3ccccc3nc2n1Cc1ccccc1 | 41.2 µM
18 | C=CC[C@@H](Nc1ccc(C)cc1)C12C=CC(O1)C(C(=O)OC)=C2C(=O)OC (some centres not stated) | 12.4 µM
19 | C=CC[C@@H](Nc1ccc(Cl)cc1)C12C=CC(O1)C(C(=O)OC)=C2C(=O)OC (some centres not stated) | 3.84 µM
20 | CCCCNC(=O)c1c(NC(=O)c2ccccc2)n(Cc2ccccc2)c2nc3ccccc3nc12 | 91.1 µM
21 | COc1cc(/C=C2\C(=O)N(c3ccccc3)N=C2C)ccc1OC(=O)c1cccs1 | 15.8 µM
22 | CCCCn1c(NC(=O)C2CCCCC2)c(C#N)c2nc3ccccc3nc21 | 2.39 µM
23 | COC(=O)C1=C(C(=O)OC)C2([C@@H](Cc3ccc(C)cc3)Nc3ccccc3)C=CC1O2 (some centres not stated) | 0.369 µM
24 | CCCCn1c(NC(=O)c2ccc(OC)cc2)c(S(=O)(=O)c2ccc(C)cc2)c2nc3ccccc3nc21 | 8.08 µM
25 | CCCCn1c(NC(=O)c2ccco2)c(S(=O)(=O)c2ccc(C)cc2)c2nc3ccccc3nc21 | 7.9 µM
26 | COC(=O)C1=C(C(=O)OC)C2(C(Cc3ccc(OC(F)(F)F)cc3)Nc3ccccc3)C=CC1O2 (configuration not stated) | 0.611 µM

Row | SMILES | IC50
27 | COc1ccc2c(c1)C(NC(C)=O)C(=O)N2CC1COc2ccccc2O1 (configuration not stated) | 66.3 µM
28 | COc1cc(/C=C2\C(=O)N(c3ccccc3)N=C2C)ccc1OCc1ccccc1 | > 100 µM (inactive)
29 | C=CC[C@H](Nc1ccc(C)cc1)C12C=CC(O1)C(C(=O)OC)=C2C(=O)OC (some centres not stated) | 11.7 µM
30 | COC(=O)C1=C(C(=O)OC)C2([C@H](Cc3ccccc3)Nc3ccccc3)C=CC1O2 (some centres not stated) | 5.04 µM
31 | COC(=O)C1=C(C(=O)OC)C2([C@@H](C)Nc3ccc(C)cc3)C=CC1O2 (some centres not stated) | 35.1 µM
32 | COC(=O)C1=C(C(=O)OC)C2([C@@H](Cc3ccccc3)Nc3ccc(Cl)cc3)C=CC1O2 (some centres not stated) | 0.713 µM
33 | COc1ccc2c(c1)C(NC(C)=O)C(=O)N2CCc1ccccc1 (configuration not stated) | > 100 µM (inactive)
34 | N#Cc1c(NC(=O)c2ccccc2Cl)n(C2CCCCC2)c2nc3ccccc3nc12 | 1.95 µM
35 | COC(=O)C1=C(C(=O)OC)C2([C@@H](Cc3ccccc3)Nc3ccccc3)C=CC1O2 (some centres not stated) | 0.329 µM
36 | COc1ccc2c(c1)C(NC(C)=O)C(=O)N2CCN1CCOCC1 (configuration not stated) | 5.02 µM
37 | C=C[C@@H](Nc1ccccc1)C12C=CC(O1)C(C(=O)OC)=C2C(=O)OC (some centres not stated) | 7.23 µM
38 | S=c1[nH]nc(-c2cc(-c3ccccc3)n[nH]2)n1N=Cc1ccc(Br)s1 | 2.07 µM
39 | COC(=O)C1=C(C(=O)OC)C2([C@H](C)Nc3ccccc3)C=CC1O2 (some centres not stated) | 23.9 µM
40 | COC(=O)C1=C(C(=O)OC)C2([C@@H](C)Nc3ccc(OC)cc3)C=CC1O2 (some centres not stated) | 55.6 µM
41 | CCCCn1c(NC(=O)c2ccccc2Cl)c(S(=O)(=O)c2ccccc2)c2nc3ccccc3nc21 | 5.63 µM
42 | C=CC[C@H](Nc1ccc(OC)cc1)C12C=CC(O1)C(C(=O)OC)=C2C(=O)OC (some centres not stated) | 17.7 µM
43 | c1ccc(CC(Nc2ccccc2)c2ccco2)cc1 (configuration not stated) | > 100 µM (inactive)
44 | CCCCn1c(NC(=O)CC)c(S(=O)(=O)c2ccc(C)cc2)c2nc3ccccc3nc21 | 33.1 µM
45 | CCCCn1c(NC(=O)c2ccc(F)cc2)c(C#N)c2nc3ccccc3nc21 | 0.757 µM
46 | COCCn1c(NC(=O)c2ccc(Cl)cc2)c(S(=O)(=O)c2ccc(C)cc2)c2nc3ccccc3nc21 | 6.59 µM
47 | C=C[C@H](Nc1ccccc1)C12C=CC(O1)C(C(=O)OC)=C2C(=O)OC (some centres not stated) | 10.4 µM
48 | C=CCC(c1ccco1)N(Cc1ccccc1)/C(=C/C(=O)OC)C(=O)OC (configuration not stated) | > 100 µM (inactive)
49 | C=CC[C@H](Nc1ccccc1)C12C=CC(O1)C(C(=O)OC)=C2C(=O)OC (some centres not stated) | 5.95 µM
50 | CCCCn1c(NC(=O)c2ccccc2)c(S(=O)(=O)c2ccc(C)cc2)c2nc3ccccc3nc21 | 9.52 µM and 6.5 µM
51 | CCCC1=NN(c2ccccc2)C(=O)/C1=C\c1ccc(O)cc1 | 19.2 µM
52 | CCC[C@H](Nc1ccccc1)C12C=CC(O1)C(C(=O)OC)=C2C(=O)OC (some centres not stated) | 2.87 µM

Row | SMILES | IC50
53 | CCCCn1c(NC(=O)c2ccccc2Cl)c(C#N)c2nc3ccccc3nc21 | 20.1 µM
54 | COC(=O)C1=C(C(=O)OC)C2([C@@H](Cc3ccc(OC)cc3)Nc3ccccc3)C=CC1O2 (some centres not stated) | 0.614 µM
55 | COC(=O)C1=C(C(=O)OC)C2([C@H](Cc3ccccc3)Nc3ccc(OC)cc3)C=CC1O2 (some centres not stated) | 13 µM
56 | CCCCn1c(NC(=O)c2cccc(Cl)c2)c(C#N)c2nc3ccccc3nc21 | 1.62 µM
57 | CCCCn1c(NC(=O)c2ccc(Cl)cc2)c(C#N)c2nc3ccccc3nc21 | 2.1 µM
58 | COc1ccc2c(c1)C(=O)C(=O)N2CCN1CCOCC1 | 76.8 µM
59 | CCCN1C(=O)C(NC(C)=O)c2cc(OC)ccc21 (configuration not stated) | > 100 µM (inactive)
60 | COC(=O)C1=C(C(=O)OC)C2([C@H](Cc3ccccc3)Nc3ccc(C)cc3)C=CC1O2 (some centres not stated) | 7.19 µM
61 | CCC[C@@H](Nc1ccccc1)C12C=CC(O1)C(C(=O)OC)=C2C(=O)OC (some centres not stated) | 0.533 µM
62 | CCCCn1c(NC(=O)c2ccc(F)cc2)c(S(=O)(=O)c2ccc(C)cc2)c2nc3ccccc3nc21 | 6.24 µM
63 | CCCCn1c(NC(C)=O)c(C#N)c2nc3ccccc3nc21 | 8.11 µM
64 | COc1ccc2c(c1)C(NC(C)=O)C(=O)N2CCOc1ccccc1 (configuration not stated) | 70.2 µM
65 | COC(=O)C1=C(C(=O)OC)C2([C@@H](C)Nc3ccc(Cl)cc3)C=CC1O2 (some centres not stated) | 18.2 µM
66 | CCCCn1c(N)c(C#N)c2nc3ccccc3nc21 | 13.3 µM
67 | COC(=O)C1=C(C(=O)OC)C2([C@H](Cc3ccccc3)Nc3ccc(Cl)cc3)C=CC1O2 (some centres not stated) | 2.56 µM
68 | COC(=O)C1=C(C(=O)OC)C2([C@@H](Cc3ccccc3)Nc3ccc(OC)cc3)C=CC1O2 (some centres not stated) | 4.87 µM
69 | CCC(=O)Nc1c(S(=O)(=O)c2ccccc2)c2nc3ccccc3nc2n1Cc1ccccc1 | 43.4 µM
70 | CCCCCn1c(NC(=O)c2ccco2)c(C(=O)OCC)c2nc3ccccc3nc21 | 4.9 µM
71 | COC(=O)[C@@H]1C2CCC([C@@H](Cc3ccccc3)Nc3ccccc3)(O2)[C@@H]1C(=O)OC (some centres not stated) | > 100 µM (inactive)
72 | COC(=O)C1=C(C(=O)OC)C2([C@H](Cc3ccc(C)cc3)Nc3ccccc3)C=CC1O2 (some centres not stated) | 2.19 µM
73 | CCCCn1c(NC(=O)c2ccccc2)c(C#N)c2nc3ccccc3nc21 | 2.93 µM and 1.2 µM
74 | C=CC[C@@H](Nc1ccc(OC)cc1)C12C=CC(O1)C(C(=O)OC)=C2C(=O)OC (some centres not stated) | 22.3 µM
75 | COC(=O)C1=C(C(=O)OC)C2([C@@H](C)Nc3ccccc3)C=CC1O2 (some centres not stated) | 7.79 µM
76 | Cc1cc(C)c2c(c1)C(=O)C(=O)N2CCN1CCOCC1 | > 100 µM (inactive)
77 | COC(=O)C1=C(C(=O)OC)C2([C@@H](Cc3ccccc3)Nc3ccc(C)cc3)C=CC1O2 (some centres not stated) | 2.96 µM
